A short description of the assay: In vitro validation of enzymatic activities: LC-MS/MS detection of levulinyl-CoA after incubation of purified proteins with substrates. It is filed as biochemical, Ralstonia eutropha. Particulars: purified proteins incubated with their respective substrates; reverse phase UPLC, negative ion MS/MS. An excerpt:
To validate the activity of the candidates identified in Example 2 above with regard to reactions A1, A2 and B, their corresponding genes were cloned into the expression plasmid pPAL7 (Biorad®). In the case of QOKBZ9_CUPNH and Q0KC00_CUPNH, the corresponding genes were cloned in operon into the pPAL7. The resulting plasmids were transformed into E. coli BL21(DE3) strain.
The resulting strains were cultivated as described in patent application WO 2010/076324, incorporated herein by reference. Cells were collected by centrifugation and resuspended in potassium phosphate buffer 100 mM pH 7.6. Proteins were extracted by sonication and crude extracts were clarified by centrifugation. Recombinant protein purification was carried out using Biorad® PROfinity EXact cartridges according to the manufacturer's instructions. […]
Levulinyl-CoA was detected by reverse phase UPLC coupled to negative ion MS/MS, by searching for the transition from mass 864 (mass of levulinyl-CoA minus 1) to 408 (ion corresponding to the adenine part according to the protocol described by Zirrolli et al. 1994) as shown on FIG. 3.

Regarding “Q0KBZ9_CUPNH/Q0KC00_CUPNH: the 2 subunits of succinyl-CoA:3-ketoacid-coenzyme A transferase (EC 2.8.3.5), candidate for reaction A2”, the “detection of levulinyl-CoA in the reaction mixture (transition 864 to 408)” value was “presence of levulinyl-CoA”.
